Assay results as given in patent US11248022B2, “Glypican-3 peptide reagents and methods” (THE REGENTS OF THE UNIVERSITY OF MICHIGAN, priority 2017, dated 2022).
Like-named read-outs stand apart in the source and are kept apart here. Each block holds one compound with its values, some of them ahead of it. Ends that are not written are not given here.

Experiments:
Hep3B cells = assay: Competition for peptide binding on Hep3B cells; assay type: cell-based, human
Method: The specificity of peptide reagent binding was also validated by competition assay. Hep3B cells were grown on cover glass and incubated first with unlabeled peptides over a range of concentrations (0-500 μM), and then with ALL*-Cy5.5 peptide. The fluorescence intensities were measured using confocal microscopy. […] Differences in fluorescence intensity between the ALL*-Cy5.5 peptide reagent and control are significant at concentrations of 50 μM and greater.

[1] = tested on: GPC3 positive tumor (from Hep3B cells); assay: In vivo whole body fluorescent imaging of HCC xenograft
Method: Mice bearing HCC xenograft tumor (arrowheads) were i.v. injected with 250 μL of 300 μM near NIR GPC3 targeting peptide ALL*-Cy5.5, scrambled control peptide QLE*-Cy5.5 and unlabeled Cy5.5 free dye alone. ALL*-Cy5.5 was also injected in mice bearing GPC3 negative tumor (from SK Hep-1 cells, arrows) as control of EPR effect. Pre-injection imaging confirmed no autofluorescence was present.

advanced HCC = conditions: cited from earlier work
SK-Hep1 xenograft tumors = assay: Immunostaining on GPC3 negative SK-Hep1 xenograft sections; parameters: species or system mice; conditions: no GPC3 expression
Text: FIGS. 18A-D show immunostaining on GPC3 negative HCC xenograft tumor.
(§1) The specimens were also sectioned for collection of confocal images to perform microscopic validation of peptide binding ex vivo.

GPC3 = molecular target: T1, GPC3 (Homo sapiens, UniProt P51654); assay: siRNA knockdown of GPC3 in Hep3B cells, confocal fluorescence; assay type: cell-based; conditions: Hep3B cells transfected with non-targeting siRNA (siCL)
T1 construct: endogenous in cells; host or cells: Hep3B human HCC cells (siCL control vs siGPC3 knockdown); also HepG2; SK-Hep1 as GPC3-negative control
Method: (§2) FIGS. 6-2A-Q show validation of specific peptide binding to cells in vitro. […] The Hep3B versus SK-Hep1 difference was also larger for antibody than QLE (P=2.3×10^−8, 6.0-fold larger). Intensity was measured with 6 replicates per condition and fitted to an ANOVA model with terms for 9 means to log-transformed data. […] We further validated specific peptide binding to GPC3 using siRNA knockdown. […] Q) Quantified fluorescence intensities. The siCL vs siGPC3 difference was 7.4 times bigger for ALL than the same difference for QLE (P=7.8×10^−5), and the difference for antibody was 8.9 times bigger than for QLE (P=2.5×10^−5), by ANOVA on log-transformed data. Results are an average of 6 images collected independently.
The specificity of lead candidate peptide reagent binding was validated by siRNA knockdown of GPC3 in human HCC cells. The cells were transfected with siRNA to knockdown cell surface expression of GPC3. […] These cells were transfected with non-targeting siRNA (siCL) for use as control. […] FIG. 6-1D,E show ˜4-fold reduction in fluorescence intensity with both the peptide reagent and anti-GPC3 antibody, respectively, for Hep3B cells transfected with siRNA (siGPC3) to knock down GPC3 expression. […] FIG. 6-2M, N, O and P show the same result as original FIG. 6-1A, B, D and E.

Hep3B human HCC cells = assay: Confocal microscopy of peptide binding to Hep3B cells; assay type: cell-based; conditions: Hep3B cells, confocal microscopy
Method: as §2
(§3) On confocal microscopy, it was shown that ALL*-Cy5.5 binds to the surface (arrows) of cells with different levels of GPC3 expression. […] GPC3 is highly overexpressed in Hep3B cell cytosol and membrane while moderately expressed in HepG2 cells. No GPC3 expression is observed in SK-Hep1 cells. Tubulin serves as loading control for either cytosol or membrane fractions loaded.

Hep3B xenograft tumors = assay: Ex vivo confocal validation on Hep3B xenograft sections and normal liver; parameters: species or system mice; conditions: normal mouse liver sections
Text: as §1

HepG2 human HCC cells = assay: Confocal microscopy of peptide binding to HepG2 cells; assay type: cell-based; conditions: HepG2 cells, confocal microscopy
Method: as §2, §3

SK-Hep1 cells = assay: Confocal microscopy of peptide binding to SK-Hep1 cells; assay type: cell-based, human
Method: as §2, §3

[2] = tested on: HCC xenograft tumor overexpressing GPC3; assay: In vivo handheld dual axes confocal endomicroscope imaging; parameters: species or system mice
Method: GPC3 expression from human HCC xenograft tumors was evaluated in real time by collecting optical sections in vivo using a handheld 5.5 mm diameter dual axes confocal endomicroscope. A solid-state diode laser (300 mW, CNI Laser Inc.) provided illumination at λex=671 nm. A parabolic mirror focused the illumination and collection beams to overlap below the tissue surface with lateral and axial resolution of 2 and 5 μm, respectively. A compact, 3D monolithic scanner located in the distal tip provided large vertical displacements and wide angular deflections to produce images in the vertical (XZ) and horizontal (XY) planes with a FOV of 1000×430 and 1000×1000 μm^2, respectively. NIR fluorescence is collected and passes through a band pass filter (FF01-716/40-25, Semrock) that transmits from 696-736 nm with >93% efficiency for detection with a photomultiplier tube (PMT, H7422PA-40, Hamamatsu) detector. The peptides were injected via the tail vain, and dissected away the skin overlying the tumor to gain access. The distal tip of the endomicroscope was placed in contact with the tumor using a drop of saline to couple the light. Laser power <2 mW on the tissue was used to avoid photobleaching. NIR fluorescence images were collected at 5 frames per sec. 3D volumetric images were reconstructed from a series of images collected in the vertical plane using Amira software (ver 5.4.3, FEI Corporation).
The probe was small enough to be comfortably held in the surgeon's hand during surgery, FIG. 12A, for in vivo imaging of biomarker expression. Its diameter was 5.5 mm and delivered 671 nm near-infrared laser at 2 mW. Mouse carrying HCC xenograft tumor overexpressing GPC3 was first injected with 250 μL 300 μM ALL*-Cy5.5 peptide intravenously and after 2 hours the probe was held in contact with exposed subcutaneous tumor to acquire in vivo peptide binding images, FIG. 12B. Images were collected in either the vertical or horizontal plane with 430 μm depth or 1000×1000 μm^2 area, respectively, at 5 frames per second. With measured lateral resolution of 2.49 μm and axial resolution of 4.98 μm, each peptide stained cell can be clearly seen (arrows). […] Strong uptake (arrows) of ALL*-Cy5.5 in tumor was captured on optical sections collected in the horizontal (1000×1000 μm^2, Video 1) FIG. 12C and vertical (1000×430 μm^2, Video 2) FIG. 12D planes, respectively. A series of vertical cross-section images were reconstructed into 3D MIP volume (Video 3), FIG. 12E.

Hep3B xenograft = assay: In vivo NIR laparoscopic imaging of HCC xenograft tumors; parameters: species or system mice; conditions: NIR laparoscope, 2 hours after i.v. injection, n=8
Method: Human HCC cells Hep3B and SK-Hep1 were cultured in Eagle's Minimum Essential Medium (EMEM) at 37° C. in 5% CO2, and supplemented with 10% fetal bovine serum (FBS) and 1% penicillin/streptomycin. Western blotting was performed to validate expression level of GPC3. Cells were diluted in growth factor reduced (GFR) Matrigel Matrix (Corning), and injected into one flank of female (to avoid male dominance within a cage) nude athymic mice (nu/nu, Jackson Laboratory) at 4 to 6 weeks of age with weight between 20 to 25 grams. ˜5×10^6 cells were implanted per mouse.
A standard surgical laparoscope (#49003 AA, HOPKINS® II Straight Forward Telescope 0°, Karl Storz) that is ˜10 mm in diameter and has a 31 cm length rigid sheath was adapted to collect reflectance and fluorescence concurrently. Nude mice with human HCC xenograft 2 weeks post implantation were tail vein injected with 200 μL 300 μM GPC3 peptide ALL*-Cy5.5. During imaging, the mice were anesthetized with inhaled isoflurane. We first used laparoscope with white light illumination to exam the xenograft. Laparoscopic images were taken two hours post injection in both fluorescence and reflection mode simultaneously with excitation solid state diode laser (660-S, Toptica Photonics) to deliver excitation at λex=660 nm into the fiber optic light guide. Images were collected at 5 frames/sec with a laser power of 1.2 mW. Hoechst 33342 (H1399, Life Technologies) at a dose of 10 mg/kg diluted in 200 μL of PBS was delivered intravenously via a tail vein injection to stain the cell nuclei 30 minutes before sacrificing the mouse. Xenograft tumors were resected and confocal fluorescence images were collected with Cy5.5 and DAPI filters 50 μm beneath the surface using a confocal microscope (Leica SPSX Upright 2-Photon Confocal Microscope). Following imaging, resected xenografts were fixed and formalin embedded for immunohistochemistry and H&E staining as described previously.
Fluorescence images of mouse HCC xenograft taken at 2 hrs post peptide injection were registered with corresponding reflectance images taken simultaneously. The fluorescence intensity of each pixel in the image was divided by intensity of corresponding pixel in the reflectance image in order to account for the difference in distance between each pixel and the laser source. A heat map image was generated from the resulting ratios at each pixel. Image segmentation was performed automatically by custom Matlab (Mathworks) software program using Ostu's Method [Otsu, Automatica, 11(285-296): 23-27 (1975)]. Target to background ratio of each processed image was calculated by dividing the average intensity of pixels inside the segmented tumor and that of those within 30 pixels outside of segmentation outline.

[3] = molecular target: purified recombinant GPC3 core protein (Homo sapiens, UniProt P51654); assay: Phage display biopanning; assay type: binding; conditions: four rounds of biopanning
Method: A panel of candidate peptides that are specific to GPC3 was identified using phage display technology. Peptide selection was performed using a library of M13 bacteriophage that express ˜10^9 unique clones of each individual sequence [Zhou et al., Clin Transl Gastroenterol, 6:e101 (2015); Joshi et al., Bioconjug Chem, 27:481-494 (2016); Rabinsky et al., Cell Mol Gastroenterol Hepatol, 2:222-237 (2016)]. The library was biopanned against purified recombinant GPC3 core protein immobilized in a 6-well plate. Four rounds of biopanning were performed using decreasing quantity (100, 80, 60, and 40 μg) of GPC3 core protein in successive rounds to increase binding specificity. The bound phages were eluted, amplified, precipitated and tittered using standard protocols, and the enriched clones from the candidate pool were sequenced to identify the lead candidates: ALLANHEELF (SEQ ID NO: 2), GLHTSATNLYLH (SEQ ID NO: 3), SGVYKVAYDWQH (SEQ ID NO: 4) and VGVESCASRCNN (SEQ ID NO: 5).

T1 sequence (P51654 25-554): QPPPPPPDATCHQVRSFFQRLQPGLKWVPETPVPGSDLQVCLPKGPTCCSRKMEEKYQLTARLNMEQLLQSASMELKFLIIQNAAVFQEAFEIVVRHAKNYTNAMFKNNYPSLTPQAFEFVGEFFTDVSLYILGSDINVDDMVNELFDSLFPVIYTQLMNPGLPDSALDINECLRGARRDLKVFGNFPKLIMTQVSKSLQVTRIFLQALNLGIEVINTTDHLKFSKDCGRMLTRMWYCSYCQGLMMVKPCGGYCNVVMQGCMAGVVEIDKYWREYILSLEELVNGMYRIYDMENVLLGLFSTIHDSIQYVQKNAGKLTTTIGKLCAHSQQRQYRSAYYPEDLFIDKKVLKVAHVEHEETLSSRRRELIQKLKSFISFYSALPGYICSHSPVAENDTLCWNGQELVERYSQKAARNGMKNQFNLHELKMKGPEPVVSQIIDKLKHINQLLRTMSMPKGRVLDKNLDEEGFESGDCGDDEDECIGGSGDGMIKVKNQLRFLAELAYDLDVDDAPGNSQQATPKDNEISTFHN
purified recombinant GPC3 core protein, sequence (P51654 25-554): as above

Compound: ALLANHEELFQT [ALL*]
effect of unlabeled peptide on ALL*-Cy5.5 fluorescence intensity (Hep3B cells): dose-dependent decrease | concentration of unlabeled peptide giving significant decrease in ALL*-Cy5.5 binding (Hep3B cells; unlabeled peptide 0-500 μM): ≥ 50 µM

time of peak uptake/signal post injection ([1]; i.v. injection, whole-body NIR imaging): 0.5 h
Compound: CCN1\C(=C/C=C/C=C/C2=[N+](CCCCCC(=O)O)c3ccc4c(S(=O)(=O)O)cc(S(=O)(=O)O)cc4c3C2(C)C)C(C)(C)c2c1ccc1c(S(=O)(=O)[O-])cc(S(=O)(=O)O)cc21 [free Cy5.5 dye, reference compound]

Compound: CNC(=O)c1cc(Oc2ccc(NC(=O)Nc3ccc(Cl)c(C(F)(F)F)c3)cc2)ccn1 [sorafenib, Sorafenib]
survival duration (advanced HCC; Asian patients): 6.5 months | survival duration (advanced HCC; Caucasian patients): 7.9 months | survival advantage over placebo (advanced HCC; clinic studies (SHARP)): ~3 months

binding to cell surface (GPC3): minimal binding
Compound: QLE*-Cy5.5: scrambled control peptide QLELTFHANLEA (SEQ ID NO: 6) labeled with Cy5.5 via GGGSK linker (QLELTFHANLEAGGGSK-{Cy5.5}) [reference compound]
staining of xenograft sections (SK-Hep1 xenograft tumors): No staining | target-to-background (T/B) ratio ([1]; 2 hours post injection, mean±SD): 1.12±0.19 | fluorescence intensity from binding to cell surface (Hep3B human HCC cells): Minimal signal | staining of normal mouse liver (Hep3B xenograft tumors): Minimal staining | fluorescence intensity from binding to cell surface (HepG2 human HCC cells): Minimal signal | fluorescence intensity from binding to cell surface (SK-Hep1 cells): Minimal signal | fluorescent intensity at tumor ([2]; 2 hours after i.v. injection, n=8): 16±4 | uptake/staining in tumor on optical sections ([2]; horizontal and vertical planes): Minimal staining | target-to-background (T/B) ratio (Hep3B xenograft): 3.0±0.7

Compound: ALLANHEELF
level of enrichment in biopanning [3]: highest level of enrichment

Compound: QRH*-Cy5.5: label printed in b35/b133 without definition; apparently a misprint for QLE*-Cy5.5 or ALL*-Cy5.5 (QRHKPREGGGSK; not fully specified (C-terminus); also: Cy5.5 label, site not given here, QRH* code without meaning)
target-to-background (T/B) ratio (Hep3B xenograft): 3.0±0.7

Compound: QLELTFHANLEA [QLE*, scrambled (control) peptide, unlabeled, reference compound]
effect of unlabeled peptide on ALL*-Cy5.5 fluorescence intensity (Hep3B cells): no change
